Drawing on patent US11897851B2, “Heterocyclic GLP-1 agonists” (Gasherbrum Bio, Inc., priority 2021, dated 2024), this text covers EC50 for six compounds.

pEC50: −log10 of the molar value.

The test concerns the target T1, GLP-1 Receptor (Homo sapiens, UniProt P43220).
T1 construct: host or cells: HEK293/GLP1R/CRE-LUC (HEK293/CRE-Luc stably expressing the GLP-1 receptor)
The test can be described thus: GLP-1R agonist cAMP stimulation assay (HEK293/GLP1R/CRE-LUC cells, Cisbio cAMP dynamic 2 kit).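 Also: compounds tested in half-log serial dilution, cAMP detected with cAMP-d2 and anti-cAMP cryptate antibody reagents after 1 h at room temperature.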 It counts as cell-based. Particulars: HEK293/CRE-Luc cell line stably expressing the GLP-1 Receptor; 1000 cells/well; 30 min at 37° C.; 0.5 mM IBMX, 0.1% BSA; read-out: GLP1R cAMP Stimulation DR: EC50.

T1 sequence (P43220 24-463, species assumed): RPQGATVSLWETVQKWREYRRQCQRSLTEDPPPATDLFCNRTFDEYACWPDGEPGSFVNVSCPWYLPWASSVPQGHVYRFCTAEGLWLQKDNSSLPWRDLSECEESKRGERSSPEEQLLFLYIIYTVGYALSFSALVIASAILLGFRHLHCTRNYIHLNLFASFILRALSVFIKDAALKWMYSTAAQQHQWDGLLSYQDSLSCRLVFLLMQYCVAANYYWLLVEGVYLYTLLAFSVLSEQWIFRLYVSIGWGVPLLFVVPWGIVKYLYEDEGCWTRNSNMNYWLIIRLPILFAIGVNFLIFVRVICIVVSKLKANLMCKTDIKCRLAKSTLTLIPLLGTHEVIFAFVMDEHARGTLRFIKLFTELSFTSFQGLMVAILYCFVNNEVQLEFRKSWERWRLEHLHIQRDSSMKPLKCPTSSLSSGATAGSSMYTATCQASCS

With `CC1(c2ccc(Cl)cc2F)Oc2cccc(C3CCN(Cc4ncc(-c5nnc(C(F)(F)F)[nH]5)cc4CCS(C)(=O)=O)CC3)c2O1` (stereo not drawn) [Compound 267, 2-({4-[2-(4-chloro-2-fluorophenyl)-2-methyl-2H-1,3-benzodioxol-4-yl]piperidin-1-yl}methyl)-3-(2-methanesulfonylethyl)-5-[5-(trifluoromethyl)-4H-1,2,4-triazol-3-yl]pyridine], the pEC50 – broadly, −log10 of the EC50, conventionally taken in molar units – is 8.33.
On to `COCCc1cc(-c2noc(=O)[nH]2)cnc1CN1CCC(c2cccc3c2OC(C)(c2ccc(Cl)cc2F)O3)CC1` (stereo not drawn) [Compound 268, 3-[6-({4-[2-(4-chloro-2-fluorophenyl)-2-methyl-2H-1,3-benzodioxol-4-yl]piperidin-1-yl}methyl)-5-(2-methoxyethyl)pyridin-3-yl]-4,5-dihydro-1,2,4-oxadiazol-5-one], for which the pEC50 was 8.11.
Take `C[C@]1(c2ccc(Cl)cn2)Oc2cccc(C3CCN(Cc4ncc(-c5nnc(C(F)(F)F)[nH]5)cc4CC4(C#N)CC4)CC3)c2O1` [Compound 277, 1-{[2-({4-[(2S)-2-(5-chloropyridin-2-yl)-2-methyl-2H-1,3-benzodioxol-4-yl]piperidin-1-yl}methyl)-5-[5-(trifluoromethyl)-4H-1,2,4-triazol-3-yl]pyridin-3-yl]methyl}cyclopropane-1-carbonitrile]: the pEC50 was 10.64.
As to `C[C@]1(c2ccc(Cl)cc2F)Oc2cccc(C3CCN(Cc4ncc(-c5nnc(C(F)(F)F)[nH]5)cc4C4CCOC4)CC3)c2O1` (stereo partly drawn) [Compound 282, 2-({4-[(2S)-2-(4-chloro-2-fluorophenyl)-2-methyl-2H-1,3-benzodioxol-4-yl]piperidin-1-yl}methyl)-3-(oxolan-3-yl)-5-[5-(trifluoromethyl)-4H-1,2,4-triazol-3-yl]pyridine], the pEC50 is 8.43.
As to `Cc1cc(-c2nnc(C(F)(F)F)[nH]2)cnc1CN1CCC(c2cccc3c2O[C@@](C)(c2ccc(C#N)cc2F)O3)CC1` [Compound 286, 3-fluoro-4-[(2S)-2-methyl-4-[1-({3-methyl-5-[5-(trifluoromethyl)-4H-1,2,4-triazol-3-yl]pyridin-2-yl}methyl)piperidin-4-yl]-2H-1,3-benzodioxol-2-yl]benzonitrile], the pEC50 was 8.86.
In the case of `CCOCCc1cc(-c2nnc(C(F)(F)F)[nH]2)cnc1CN1CCC(c2cccc3c2O[C@@](C)(c2ccc(Cl)cc2F)O3)CC1` [Compound 287, 2-({4-[(2S)-2-(4-chloro-2-fluorophenyl)-2-methyl-2H-1,3-benzodioxol-4-yl]piperidin-1-yl}methyl)-3-(2-ethoxyethyl)-5-[5-(trifluoromethyl)-4H-1,2,4-triazol-3-yl]pyridine], the pEC50 is 9.06.
